The source of these data is patent US10543212B2, “Substituted amines for treating cardiac diseases” (Cardurion Pharmaceuticals, LLC, priority 2017, dated 2020).

As a reminder, the IC50 is the concentration at which inhibition is half-maximal.

Structures are written as SMILES. Where only a bound is given, the exact number is not on record here.

The target in one experiment is T1, Full-length, GST-tagged, human CaMKIIδ (Homo sapiens, UniProt Q13557).
T1 construct: Full-Length, Glutathione-S-Transferase(GST)-Tagged, Human CaMKIIδ was purchased from Carna Biosciences; purchased Carna Biosciences 02-111
T1 sequence (Q13557 1-478 isoform Q13557-12): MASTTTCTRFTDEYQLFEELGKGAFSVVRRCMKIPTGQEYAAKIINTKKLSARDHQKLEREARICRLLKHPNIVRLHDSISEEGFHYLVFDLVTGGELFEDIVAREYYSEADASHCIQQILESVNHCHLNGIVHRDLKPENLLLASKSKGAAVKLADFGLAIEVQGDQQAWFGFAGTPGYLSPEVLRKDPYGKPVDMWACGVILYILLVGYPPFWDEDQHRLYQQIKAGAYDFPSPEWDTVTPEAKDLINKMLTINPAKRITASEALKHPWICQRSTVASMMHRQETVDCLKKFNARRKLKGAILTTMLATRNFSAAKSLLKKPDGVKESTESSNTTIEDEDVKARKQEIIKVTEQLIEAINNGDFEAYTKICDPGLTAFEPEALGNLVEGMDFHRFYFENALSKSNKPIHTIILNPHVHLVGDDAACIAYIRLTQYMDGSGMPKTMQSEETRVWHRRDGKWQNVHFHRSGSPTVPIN
The experiment in a line: CaMKIIδ binding assay (TR-FRET with BODIPY-labeled probe ligand). Conditions: CaMKIIδ binding assay, results of Table 2. In short, it runs like this:
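Compounds were tested as 4-fold, eight-point series for 1 hr at room temperature, and IC50 was obtained by logistic fitting against a 3 μM parent-compound control. Signal came from displacement of a 300 nM BODIPY ligand from 0.5 nM GST-CaMKIIδ, detected via Tb-anti-GST in calmodulin/Ca2+ (pH 7.6).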
`C[C@@H](Cn1cnnn1)Oc1cc(-c2cnc(Nc3cn(C4CCN(Cc5ccncc5)CC4)nc3C(F)(F)F)nc2)ccc1Cl` [Example 550, (S)-5-(3-((1-(1H-tetrazol-1-yl)propan-2-yl)oxy)-4-chlorophenyl)-N-(1-(1-(pyridin-4-ylmethyl)piperidin-4-yl)-3-(trifluoromethyl)-1H-pyrazol-4-yl)pyrimidin-2-amine] yielded an IC50 of 10 to 100 nM. The same measure, in the same setting: as for `COc1cc(C2CCN(C3COC3)CC2)c(C)cc1Nc1ncc(-c2ccc(Cl)c(O[C@@H](C)Cn3cnnn3)c2)cn1` [Example 529, (S)-5-(3-((1-(1H-tetrazol-1-yl)propan-2-yl)oxy)-4-chlorophenyl)-N-(2-methoxy-5-methyl-4-(1-(oxetan-3-yl)piperidin-4-yl)phenyl)pyrimidin-2-amine], the figure is less than 10 nM; as for `COc1cc2c(cc1Nc1ncc(-c3ccc(Cl)c(O[C@@H](C)Cn4cnnn4)c3)cn1)CN(CC(C)=O)CC2` [Example 510, (S)-1-(7-((5-(3-((1-(1H-tetrazol-1-yl)propan-2-yl)oxy)-4-chlorophenyl)pyrimidin-2-yl)amino)-6-methoxy-3,4-dihydroisoquinolin-2(1H)-yl)propan-2-one], less than 10 nM.

Compound `COc1cc2c(cc1Nc1ncc(-c3ccc(Cl)c(O[C@@H](C)Cn4cnnn4)c3)cn1)NCC2` [Example 477, (S)-N-(5-(3-((1-(1H-tetrazol-1-yl)propan-2-yl)oxy)-4-chlorophenyl)pyrimidin-2-yl)-5-methoxyindolin-6-amine] came in with an IC50 of 10 to 100 nM. For `C[C@@H](Cn1cnnn1)Oc1cc(-c2cnc(Nc3cc4c(cc3Cl)CCN(C3COC3)CC4)nc2)ccc1C#N` [Example 539, (S)-2-((1-(1H-tetrazol-1-yl)propan-2-yl)oxy)-4-(2-((8-chloro-3-(oxetan-3-yl)-2,3,4,5-tetrahydro-1H-benzo[d]azepin-7-yl)amino)pyrimidin-5-yl)benzonitrile], the IC50 is less than 10 nM. `C[C@@H](Cn1cnnn1)Oc1cc(-c2cnc(Nc3cn(C4CCN(C5CCOC5)CC4)nc3C(F)(F)F)nc2)ccc1Cl` (stereo partly drawn) [Example 552, 5-(3-(((S)-1-(1H-tetrazol-1-yl)propan-2-yl)oxy)-4-chlorophenyl)-N-(1-(1-(tetrahydrofuran-3-yl)piperidin-4-yl)-3-(trifluoromethyl)-1H-pyrazol-4-yl)pyrimidin-2-amine] came in with an IC50 of less than 10 nM.

Still in this experiment, the particulars now being: CaMKIIδ binding assay; activity class per Table 2.
`C[C@H](Cn1cnnn1)Oc1cc(-c2cnc(Nc3cn([C@H]4CC[C@H](N5CCOCC5)CC4)nc3C(F)(F)F)nc2)ccc1Cl` [Example 893, 5-(3-(((R)-1-(1H-tetrazol-1-yl)propan-2-yl)oxy)-4-chlorophenyl)-N-(1-(trans-4-morpholinocyclohexyl)-3-(trifluoromethyl)-1H-pyrazol-4-yl)pyrimidin-2-amine] had an IC50 of 10 to 100 nM. On the same count and under the same terms, with `C[C@@H](CN1CCCC1=O)Oc1cc(-c2cnc(Nc3cn([C@H]4CC[C@H](N5CCOCC5)CC4)nc3C(F)(F)F)nc2)ccc1C#N` [Example 900, 4-(2-((1-(trans-4-morpholinocyclohexyl)-3-(trifluoromethyl)-1H-pyrazol-4-yl)amino)pyrimidin-5-yl)-2-(((S)-1-(2-oxopyrrolidin-1-yl)propan-2-yl)oxy)benzonitrile] the figure was 10 to 100 nM; with `CC(Cn1cnnn1)Oc1cc(-c2cnc(Nc3cn(CC4(O)CCC(N5CCOCC5)CC4)nc3OCC(F)(F)F)nc2)ccc1Cl` [Example 911, trans-1-((4-((5-(3-(((S)-1-(1H-tetrazol-1-yl)propan-2-yl)oxy)-4-chlorophenyl)pyrimidin-2-yl)amino)-3-(2,2,2-trifluoroethoxy)-1H-pyrazol-1-yl)methyl)-4-morpholinocyclohexan-1-ol], less than 10 nM.

Still in this experiment, the particulars now being: Table 2; CaMKIIδ binding assay, activity given as class A/B/C.
As for `Cc1cc(Nc2ncc(-c3ccc(Cl)c(O[C@@H](C)Cn4cnnn4)c3)cn2)n(C)n1` [Example 751, (S)-5-(3-((1-(1H-tetrazol-1-yl)propan-2-yl)oxy)-4-chlorophenyl)-N-(1,3-dimethyl-1H-pyrazol-5-yl)pyrimidin-2-amine], the IC50 fell in the range of 10 to 100 nM.

As to `C[C@@H](Cn1cnnn1)Oc1cc(-c2cnc(Nc3cn(C4CCN(C5CCOCC5)CC4)nc3OCC(F)(F)F)nc2)ccc1F` [Example 789, (S)-5-(3-((1-(1H-tetrazol-1-yl)propan-2-yl)oxy)-4-fluorophenyl)-N-(1-(1-(tetrahydro-2H-pyran-4-yl)piperidin-4-yl)-3-(2,2,2-trifluoroethoxy)-1H-pyrazol-4-yl)pyrimidin-2-amine], the IC50 was less than 10 nM. On to `C[C@@H](Cn1cnnn1)Oc1cc(-c2cnc(Nc3cn(CC(O)(C(F)(F)F)C(F)(F)F)nc3C(F)(F)F)nc2)ccc1Cl` [Example 744, (S)-2-((4-((5-(3-((1-(1H-tetrazol-1-yl)propan-2-yl)oxy)-4-chlorophenyl)pyrimidin-2-yl)amino)-3-(trifluoromethyl)-1H-pyrazol-1-yl)methyl)-1,1,1,3,3,3-hexafluoropropan-2-ol], for which the IC50 was not below 100 nM. The compound `CCOC(=O)c1c(Nc2ncc(-c3ccc(Cl)c(O[C@@H](C)Cn4cnnn4)c3)cn2)cnn1CC` [Example 872, ethyl (S)-4-((5-(3-((1-(1H-tetrazol-1-yl)propan-2-yl)oxy)-4-chlorophenyl)pyrimidin-2-yl)amino)-1-ethyl-1H-pyrazole-5-carboxylate] returned an IC50 of less than 10 nM.

`C[C@@H](Cn1cnnn1)Oc1cc(-c2cnc(Nc3snnc3-c3ccc(Cl)cc3)nc2)ccc1Cl` [Example 748, (S)-N-(5-(3-((1-(1H-tetrazol-1-yl)propan-2-yl)oxy)-4-chlorophenyl)pyrimidin-2-yl)-4-(4-chlorophenyl)-1,2,3-thiadiazol-5-amine] returned an IC50 not below 100 nM. On to `C[C@@H](Cn1cnnn1)Oc1cc(-c2cnc(Nc3cn([C@H]4CC[C@@H](N5CC(C)(O)C5)CC4)nc3OCC(F)(F)F)nc2)ccc1Cl` [Example 801, 1-(cis-4-(4-((5-(3-(((S)-1-(1H-tetrazol-1-yl)propan-2-yl)oxy)-4-chlorophenyl)pyrimidin-2-yl)amino)-3-(2,2,2-trifluoroethoxy)-1H-pyrazol-1-yl)cyclohexyl)-3-methylazetidin-3-ol], for which the IC50 is less than 10 nM.

Staying with this experiment, now noted: Table 2; activity class for CaMKIIδ.
In the case of `CCOc1nn(C2CCN(C3CCOCC3)CC2)cc1Nc1ncc(-c2ccc(Cl)c(O[C@@H](C)Cn3cnnn3)c2)cn1` [Example 587, (S)-5-(3-((1-(1H-tetrazol-1-yl)propan-2-yl)oxy)-4-chlorophenyl)-N-(3-ethoxy-1-(1-(tetrahydro-2H-pyran-4-yl)piperidin-4-yl)-1H-pyrazol-4-yl)pyrimidin-2-amine], the IC50 was less than 10 nM. On the same count and under the same terms, as for `C[C@@H](Cn1cnnn1)Oc1cc(-c2cnc(Nc3cn(Cc4ccncc4)nc3C(F)(F)F)nc2)ccc1Cl` [Example 709, (S)-5-(3-((1-(1H-tetrazol-1-yl)propan-2-yl)oxy)-4-chlorophenyl)-N-(1-(pyridin-4-ylmethyl)-3-(trifluoromethyl)-1H-pyrazol-4-yl)pyrimidin-2-amine], the figure is 10 to 100 nM; as for `C[C@@H](Cn1cnnn1)Oc1cc(-c2cnc(Nc3cn([C@@H]4C[C@H]5CC[C@@H](C4)N5C(=O)OC(C)(C)C)nc3C(F)(F)F)nc2)ccc1Cl` [Example 701, tert-butyl (1R,3s,5S)-3-(4-((5-(3-(((S)-1-(1H-tetrazol-1-yl)propan-2-yl)oxy)-4-chlorophenyl)pyrimidin-2-yl)amino)-3-(trifluoromethyl)-1H-pyrazol-1-yl)-8-azabicyclo[3.2.1]octane-8-carboxylate], not below 100 nM.
